The source of these data is US20100048488A1, “IMMUNOMODULATORY PEPTIDES” (Syntonix Pharmaceuticals, Inc., priority 2008, published 2010).

A short description of data set [1]: Solubility by visual inspection of lyophilized peptide in buffer. Particulars: for Solubility at 50 mg/mL peptide in PBS + 40 mM sodium phosphate, pH 7.4, after 30 minutes at room temperature: PBS + 40 mM sodium phosphate pH 7.4, 30 minutes room temperature; for Solubility at 100 mg/mL peptide in 100 mM sodium phosphate, pH 7.4, after 30 minutes at room temperature: 100 mM sodium phosphate pH 7.4, 30 minutes room temperature. In kind it is physicochemical.

The nature of data set [2]: Pharmacokinetics in SD rats (serum peptide concentration by LCMS). In kind it is in vivo. The following applies: rat, sc, single subcutaneous dose, peptide concentration 30 mg/mL; for level at 0.5 h: timepoint 0.5 hr; for level at 2 h: timepoint 2.00 hr; for level at 4 h: timepoint 4.00 hr; for level at 6 h: timepoint 6.00 hr; for level at 24 h: timepoint 24.00 hr; for level at 48 h: timepoint 48.00 hr. The protocol:
SD Rats (3 per group) were treated with a single subcutaneous dose of either Peptide 283 or Peptide 310, at a peptide concentration of 30 mg/mL. Blood was collected at 0.5, 2, 4, 6, 24, 48 hours, serum was prepared and the peptide concentrations in serum were determined by LCMS.

Data set [3] has as its target T1, soluble human FcRn (shFcRn) (Homo sapiens, UniProt P55899).
T1 construct: made in house; host or cells: Chinese hamster ovary (CHO) cells, glutamine synthetase expression system
Nature of the data set: Peptide-IgG competition ELISA. In kind it is binding. The following applies: 3 nM human IgG, pH 6, 37° C. 2 hours. The protocol:
The wells were coated with 100 μl/well of 1 μg/ml biotinylated-shFcRn in Buffer A. The plate was sealed and incubated at 37° C. for 2 hours. Afterwards, the plate was washed with 200 μl/well of Buffer B (Buffer B: 100 mM MES pH 6, 150 mM NaCl, 0.5% BSA IgG-free (Jackson ImmunoResearch, West Grove, Pa.), 0.05% Tween-20). […] To allow for mixing, the plate was rocked for 2 minutes, sealed and incubated at 37° C. for 2 hours. […] The plate was covered, incubated for 30 minutes at room temperature and washed 4 times with 200 μl/well of ice-cold buffer B. SureBlue TMB substrate solution (100 μl/well, KPL, Gaithersburg, Md.) was added and the plate was allowed to incubate at room temperature until color developed, which took 5 to 10 minutes. Once color developed, 100 μl/well of TMB stop solution (KPL, Gaithersburg, Md.) was added and the absorbance was measured at 450 nm.

T1 sequence (P55899 24-297 limits assumed): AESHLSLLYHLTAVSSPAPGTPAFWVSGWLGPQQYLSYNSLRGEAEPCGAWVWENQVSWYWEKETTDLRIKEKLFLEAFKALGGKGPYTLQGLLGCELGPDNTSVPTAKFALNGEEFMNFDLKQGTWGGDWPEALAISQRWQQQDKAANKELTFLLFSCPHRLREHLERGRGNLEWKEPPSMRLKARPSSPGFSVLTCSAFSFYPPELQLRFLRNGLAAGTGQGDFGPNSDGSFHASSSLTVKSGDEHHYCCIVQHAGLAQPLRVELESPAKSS
T1 sequence (P61769 21-119 partner): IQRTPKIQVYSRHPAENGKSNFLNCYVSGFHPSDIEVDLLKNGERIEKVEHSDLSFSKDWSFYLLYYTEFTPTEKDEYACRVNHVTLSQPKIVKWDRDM

In the case of `CC(C)C[C@H]1C(=O)N[C@@H](Cc2ccc(O)cc2)C(=O)N2CCC[C@H]2C(=O)N[C@H](C(N)=O)CSSC(C)(C)[C@H](NC(=O)[C@H](Cc2ccccc2)NC(=O)[C@H](CCCNC(=N)N)NC(=O)CCC(=O)N[C@@H](CCCNC(=N)N)C(=O)N[C@@H](Cc2ccccc2)C(=O)N[C@@H]2C(=O)N[C@@H]([C@@H](C)O)C(=O)NCC(=O)N[C@@H](Cc3c[nH]cn3)C(=O)N[C@@H](Cc3ccccc3)C(=O)NCC(=O)N(C)CC(=O)N(C)[C@@H](CC(C)C)C(=O)N[C@@H](Cc3ccc(O)cc3)C(=O)N3CCC[C@H]3C(=O)N[C@H](C(N)=O)CSSC2(C)C)C(=O)N[C@@H]([C@@H](C)O)C(=O)NCC(=O)N[C@@H](Cc2c[nH]cn2)C(=O)N[C@@H](Cc2ccccc2)C(=O)NCC(=O)N(C)CC(=O)N1C` [Peptide No. 283], in data set [1], the “Solubility at 50 mg/mL peptide in PBS + 40 mM sodium phosphate, pH 7.4, after 30 minutes at room temperature” value (shortened to “Solubility at 50 mg/mL peptide”) is given as “Insoluble” and the “Solubility at 100 mg/mL peptide in 100 mM sodium phosphate, pH 7.4, after 30 minutes at room temperature” value (“Solubility at 100 mg/mL peptide” below) is on record as “Insoluble”. In data set [2], the level at 0.5 h is 23 ± 14 ng/mL, the level at 2 h was determined as 50 ± 16 ng/mL, the level at 4 h was found to be 66 ± 42 ng/mL and the level at 6 h came to 68 ± 34 ng/mL. In data set [2], the level at 24 h amounted to 41 ± 6 ng/mL and the level at 48 h was found to be 19 ± 4 ng/mL.

In data set [3], `CC(C)C[C@H]1C(=O)N[C@@H](Cc2ccc(O)cc2)C(=O)N2CCC[C@H]2C(=O)N[C@H](C(=O)N[C@@H](CCCCN)C(N)=O)CSSC(C)(C)[C@H](NC(=O)[C@H](Cc2ccccc2)NC(=O)[C@H](CCCNC(=N)N)NC(=O)CCC(=O)N[C@@H](CCCNC(=N)N)C(=O)N[C@@H](Cc2ccccc2)C(=O)N[C@@H]2C(=O)N[C@@H]([C@@H](C)O)C(=O)NCC(=O)N[C@@H](Cc3c[nH]cn3)C(=O)N[C@@H](Cc3ccccc3)C(=O)NCC(=O)N(C)CC(=O)N(C)[C@@H](CC(C)C)C(=O)N[C@@H](Cc3ccc(O)cc3)C(=O)N3CCC[C@H]3C(=O)N[C@H](C(=O)N[C@@H](CCCCN)C(N)=O)CSSC2(C)C)C(=O)N[C@@H]([C@@H](C)O)C(=O)NCC(=O)N[C@@H](Cc2c[nH]cn2)C(=O)N[C@@H](Cc2ccccc2)C(=O)NCC(=O)N(C)CC(=O)N1C` [Peptide No. 310] had an IC50 of 1.8 ± 1.1 nM. Besides, in data set [1], the “Solubility at 50 mg/mL peptide” value is on record as “Soluble” and the “Solubility at 100 mg/mL peptide” value is recorded as “Soluble”. Further, in data set [2], the level at 0.5 h came to 137 ± 60 ng/mL, the level at 2 h was 183 ± 81 ng/mL, the level at 4 h amounted to 440 ± 156 ng/mL and the level at 6 h stood at 557 ± 268 ng/mL. Also, in data set [2], the level at 24 h was 117 ± 36 ng/mL and the level at 48 h was 37 ± 15 ng/mL.

As to `CC(C)C[C@H]1C(=O)N[C@@H](Cc2ccc(O)cc2)C(=O)N2CCC[C@H]2C(=O)N[C@H](C(=O)N[C@@H](CCCNC(=N)N)C(N)=O)CSSC(C)(C)[C@H](NC(=O)[C@H](Cc2ccccc2)NC(=O)[C@H](CCCNC(=N)N)NC(=O)CCC(=O)N[C@@H](CCCNC(=N)N)C(=O)N[C@@H](Cc2ccccc2)C(=O)N[C@@H]2C(=O)N[C@@H]([C@@H](C)O)C(=O)NCC(=O)N[C@@H](Cc3c[nH]cn3)C(=O)N[C@@H](Cc3ccccc3)C(=O)NCC(=O)N(C)CC(=O)N(C)[C@@H](CC(C)C)C(=O)N[C@@H](Cc3ccc(O)cc3)C(=O)N3CCC[C@H]3C(=O)N[C@H](C(=O)N[C@@H](CCCNC(=N)N)C(N)=O)CSSC2(C)C)C(=O)N[C@@H]([C@@H](C)O)C(=O)NCC(=O)N[C@@H](Cc2c[nH]cn2)C(=O)N[C@@H](Cc2ccccc2)C(=O)NCC(=O)N(C)CC(=O)N1C` [Peptide No. 311], the IC50 in data set [3] was 1.5 ± 0.7 nM. Besides, in data set [1], the “Solubility at 50 mg/mL peptide” value was “Insoluble” and the “Solubility at 100 mg/mL peptide” value is given as “Insoluble”.

Usually IC50 stands for the concentration needed to halve the response being measured. A lower IC50 goes with higher potency.
